The target of data set [1] is T1, CYP3A4 (Homo sapiens, UniProt P08684). The conditions noted are these: read-out: IC50 for CYP marker reaction; P450-Glo marker reaction.
The nature of data set [2]: LC-MS/MS urinary metabolic profile of patients receiving warfarin. The conditions noted are these: for % R / % S (proportion in (S)-enantiomeric form) / % conjugated (proportion glucuronidated) / urinary concentration: urine; for urinary concentration: free and conjugated; for share of (S)-WAR P450 metabolites measured: three urine specimens. The text has this: All chemicals used in this study were of at least reagent grade. Unless otherwise specified, all chemicals and reagents were purchased from either Sigma-Aldrich (St. Louis, Mo.) or Thermo Fisher Scientific (Waltham, Mass.). […] Ethyl alcohol (100%) was purchased from AAPER (Shelbyville, Ky.). Re-combinant CYP2C9*1, CYP3A4, CYP1A2, and CYP2C19 were expressed in baculovirus-infected insect cells and purchased from BD Biosciences (San Jose, Calif.). Commercially available urine specimens from three females (F84, F85, and F87) were provided by the Emergency Response and Air Toxicants Branch, Division of Laboratory Science National Center for Environmental Health Centers for Disease Control and Prevention (DeKalb County, Ga.). Patient studies were conducted under IRB-approved protocols, and all patients signed informed consent documentation.
This analytical phase was accomplished by reverse-phase HPLC using a 4.6 mm×150 mm C18 Zorbax Eclipse 5 μm XDB-C18 column provided by Agilent (Santa Clara, Calif.). The operating temperature was 40° C., and the sample injection volume was 5.0 μL. HPLC mobile phases consisted H2O (0.1% acetic acid v/v) (A) and methanol (0.1% acetic acid v/v) (B). The flow rate was 1 mL/min. […] The total run time per sample was 10 min. Specific MS/MS experimental conditions used in this study are noted in Table 1.
To determine the relative abundance of the (R)-and (S)-enantiomers of each metabolite, a 4.6 mm×25 cm Chirobiotic V5 μm column supplied by Supelco (Bellefonte, Pa.) was incorporated during the second analytical phase. Mobile phases consisted of H2O (0.1% acetic acid v/v) (A) and acetonitrile (0.1% acetic acid v/v) (B) with a flow rate of 800 μL/min. Enantiomeric separations were accomplished under isocratic conditions (80% A and 20% B). The sample injection volume was 15.0 μL. Enantiomeric MS/MS analyses were performed in negative ion mode by electrospray ionization (ESI) using a Turbo IonSpray source. A total run time of 20 min was required for adequate resolution. Specific MS/MS experimental conditions used in this study are noted in the Table 2.
Each response was normalized to that of the internal standard, 7-hydroxycoumarin (10 μM). […] Measurements of these three metabolites were calculated by taking the difference of the amount measured in the first analytical phase, which contained both (R)-and (S) isomers from the amount of the (S)-isomer measured in the second analytical phase (eq 3). Glucuronidated metabolites were measured by incubating 250 μL of urine with 2000 units of GUS in 100 mM sodium acetate buffer, pH 5.0. The final volume for each of these reactions was 1 mL. Control reactions omitting GUS were included with each sample set. Reactions were incubated overnight at 37° C., after which they were stored at −80° C. Immediately before analysis, both samples were diluted with an equal volume of ethanol containing 7-hydroxycoumarin (10 μM final concentration). The difference between GUS-treated samples and controls represented the amount of glucuronidated metabolites present.

For data set [3], the target named is T2, CYP1A2 (Homo sapiens, UniProt P05177).
T2 sequence (P05177 1-516): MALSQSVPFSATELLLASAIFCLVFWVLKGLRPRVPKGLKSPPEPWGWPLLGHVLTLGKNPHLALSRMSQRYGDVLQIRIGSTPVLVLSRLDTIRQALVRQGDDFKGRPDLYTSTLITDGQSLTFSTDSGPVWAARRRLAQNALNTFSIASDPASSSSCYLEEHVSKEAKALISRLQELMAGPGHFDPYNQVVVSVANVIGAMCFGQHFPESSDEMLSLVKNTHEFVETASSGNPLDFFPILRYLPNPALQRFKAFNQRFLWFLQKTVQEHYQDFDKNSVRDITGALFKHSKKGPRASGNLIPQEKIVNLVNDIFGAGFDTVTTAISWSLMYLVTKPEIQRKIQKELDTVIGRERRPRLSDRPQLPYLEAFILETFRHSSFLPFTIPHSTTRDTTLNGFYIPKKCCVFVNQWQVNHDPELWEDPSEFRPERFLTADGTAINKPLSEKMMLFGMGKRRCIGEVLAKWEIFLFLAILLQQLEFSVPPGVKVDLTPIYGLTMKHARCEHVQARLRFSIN
The conditions noted are these: read-out: IC50 for CYP marker reaction; P450-Glo marker reaction.

Data set [4] addresses CYP2C9 present in the human liver microsomes (Homo sapiens, UniProt P11712). The conditions noted are these: for Ki / Mechanism of inhibition: S-warfarin metabolism, 7-hydroxywarfarin formation as marker. The protocol: (§1) For each hydroxywarfarin, at least 4 independent experimental replicates were performed.
(§2) MS/MS experimental conditions was used as described previously (6).
(§3) The most probable inhibition mechanism for recombinant CYP2C9 and human liver microsome reactions was identified using DynaFit ver. 3.28 (Biokin, Ltd) (20). Data from each set of hydroxywarfarin experiments were fit to traditional reversible inhibition mechanisms (competitive, uncompetitive, noncompetitive, or mixed). The respective kinetic parameters (Ki and Ki′) were set as variables, while the kinetic parameters (Vmax and Km) were constants based on values obtained from uninhibited reactions. The most probable mechanism was then identified using the Akaike Information Criterion (AICc) for model discrimination (21).

For data set [5], the target named is T3, CYP2C9*1 (Homo sapiens, UniProt P11712). Conditions: for Ki / Mechanism of inhibition: S-warfarin metabolism, 7-hydroxywarfarin formation as marker. The method, then: as §1, §2, §3
The target in data set [6] is T3, CYP2C9*1. Conditions: read-out: IC50 for CYP marker reaction; P450-Glo marker reaction.
The subject of data set [7] is plasma proteins. The conditions noted are these: cited from earlier work.
The target in data set [8] is CYP2C9 (Homo sapiens, UniProt P11712). The conditions noted are these: read-out: IC50 toward recombinant CYP2C9 activity; P450-Glo, 50 μM Luciferin H; racemic compounds. The method, then: Hydroxywarfarins were screened for inhibitory potential toward recombinant CYP2C9 using the Promega (Madison, Wis.) CY2C9 P450-Glo™ Assay using the manufacturer's protocol. These IC50 studies were analyzed on a PerkinElmer Victor^3V™ 1420 Multilabel Counter. Recombinant CYP2C9, 50 nM, was incubated with 50 μM Luciferin H, and six concentrations of each hydroxywarfarin from approximately 10 nM to 4 mM final concentration, as optimized for each compound. The appropriate volume of hydroxywarfarin stocks in 100% ethanol were added to each well prior to addition of the substrate and enzyme, and the ethanol was allowed to evaporate at room temperature to minimize solvent effects on CYP2C9 activity. A final DMSO concentration of 1% was present in the reactions due to the P450-Glo Luciferin H. The reaction was initiated upon addition of an NADPH regenerating solution (BD Biosciences) and quenched with a luciferase quench (Promega) at 30 min.

Data set [9] has as its target UGT1A10 (Homo sapiens, UniProt Q9HAW8). The conditions noted are these: glucuronidation; racemic OHWars. The text has this:
The characterization of hepatic and extrahepatic glucuronidation may be made based on glucuronidation studies with 100 commercially available HLM and 100 intestinal microsomal preparations available in our laboratory. […] Both racemic mixtures and separated R and S enantiomers may be assayed. […] Activities of extrahepatic (UGT1A8 and UGT1A10) and hepatic (UGT1A1, UGT1A3, and UGT1A9) isoforms may be compared to that of their respective microsomal preparations, and assign the contribution of specific UGTs to product formation by the human samples.

Data set [10] can be described thus: Estimated unbound levels in plasma of long-term warfarin therapy patients. Conditions: estimated from literature data.
For data set [11], the target named is T1, CYP3A4. The data set is described as follows: Steady-state metabolism of R- and S-warfarin by recombinant CYP3A4.
Procedure: (§4) Reactions were initiated upon addition of an NADPH regenerating system [2 μU μL-1 glucose 6-phosphate dehydrogenase, 10 mM glucose 6-phosphate, 2 mM MgCl2, 1 mM NADP^+]. […] The quenched reactions were centrifuged and the resulting supernatant containing substrate and products resolved and quantified by UPLC-MS/MS. Each experiment was performed in at least 4 independent experimental replicates.
(§5) The flow rate was constant at 250 μL/min. […] Electrospray conditions were as follows: spray voltage of 4500 V, sheath gas pressure 45, auxiliary gas pressure 20, and collision energy of 15-15 eV (compound specific).
(§6) Final metabolite concentrations were calculated from the ratio of metabolite area to internal standard area in the sample and compared to calibration curves as determined from the UPLC-MS/MS method. All compounds were quantified relative to authentic standards. The resulting kinetic data were analyzed with GraphPad Prism 5® software. Non-linear regression analysis was used to fit steady-state data to the Michaelis-Menten equation to determine the Vmax and Km parameters.
The target of data set [12] is CYP3A7 (Homo sapiens, UniProt P24462). Put plainly: Steady-state metabolism of R- and S-warfarin by recombinant CYP3A7.
Procedure: as §4, §5, §6
Where [13] appears, read: 10-hydroxywarfarin formation, 37° C, pH 7.4.

We go through six compounds from patent US20100273203A1 (priority 2009, published 2010).

Read-outs that look alike come from different tables or passages of the source.

T1 sequence (P08684 whole entry): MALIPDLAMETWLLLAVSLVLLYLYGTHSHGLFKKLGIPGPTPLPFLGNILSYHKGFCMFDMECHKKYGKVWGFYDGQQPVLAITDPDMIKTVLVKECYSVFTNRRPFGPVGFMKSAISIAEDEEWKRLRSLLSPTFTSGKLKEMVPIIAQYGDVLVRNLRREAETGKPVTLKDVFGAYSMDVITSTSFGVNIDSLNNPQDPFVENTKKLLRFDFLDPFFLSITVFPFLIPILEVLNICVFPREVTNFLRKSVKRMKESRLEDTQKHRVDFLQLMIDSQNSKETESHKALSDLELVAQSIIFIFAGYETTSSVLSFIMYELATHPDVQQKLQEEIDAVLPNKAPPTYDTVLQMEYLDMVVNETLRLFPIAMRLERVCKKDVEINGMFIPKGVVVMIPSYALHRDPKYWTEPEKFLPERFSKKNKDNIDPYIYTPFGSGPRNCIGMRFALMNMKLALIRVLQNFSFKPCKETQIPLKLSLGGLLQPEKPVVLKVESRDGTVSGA
CYP3A7, sequence (P24462 whole entry): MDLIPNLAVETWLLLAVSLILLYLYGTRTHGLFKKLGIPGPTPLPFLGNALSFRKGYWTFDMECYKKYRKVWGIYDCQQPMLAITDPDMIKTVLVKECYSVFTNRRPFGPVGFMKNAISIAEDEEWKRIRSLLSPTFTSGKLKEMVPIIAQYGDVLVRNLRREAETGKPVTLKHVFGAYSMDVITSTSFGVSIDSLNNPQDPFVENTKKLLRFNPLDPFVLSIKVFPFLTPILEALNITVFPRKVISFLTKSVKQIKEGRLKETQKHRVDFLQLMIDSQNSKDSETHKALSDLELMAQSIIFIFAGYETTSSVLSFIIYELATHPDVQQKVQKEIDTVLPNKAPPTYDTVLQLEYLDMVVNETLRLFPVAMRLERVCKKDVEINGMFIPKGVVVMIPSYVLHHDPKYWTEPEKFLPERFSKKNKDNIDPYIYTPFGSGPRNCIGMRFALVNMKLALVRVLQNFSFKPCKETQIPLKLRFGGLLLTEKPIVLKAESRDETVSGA
CYP2C9, sequence (P11712 whole entry): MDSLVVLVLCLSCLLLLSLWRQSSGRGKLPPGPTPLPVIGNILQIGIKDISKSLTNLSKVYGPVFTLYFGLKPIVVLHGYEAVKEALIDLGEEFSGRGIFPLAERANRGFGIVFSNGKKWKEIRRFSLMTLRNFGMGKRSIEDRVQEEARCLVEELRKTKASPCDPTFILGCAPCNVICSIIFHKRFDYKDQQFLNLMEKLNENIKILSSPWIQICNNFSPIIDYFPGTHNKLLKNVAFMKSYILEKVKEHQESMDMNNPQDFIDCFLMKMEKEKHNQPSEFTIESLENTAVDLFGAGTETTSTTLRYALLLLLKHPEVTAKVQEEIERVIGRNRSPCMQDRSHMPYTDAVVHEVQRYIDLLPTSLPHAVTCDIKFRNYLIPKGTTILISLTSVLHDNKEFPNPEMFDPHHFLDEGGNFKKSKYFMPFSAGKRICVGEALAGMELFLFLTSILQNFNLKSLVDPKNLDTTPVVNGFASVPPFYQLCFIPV
CYP2C9 present in the human liver microsomes, sequence (P11712 whole entry): as above
UGT1A10, sequence (Q9HAW8 26-530): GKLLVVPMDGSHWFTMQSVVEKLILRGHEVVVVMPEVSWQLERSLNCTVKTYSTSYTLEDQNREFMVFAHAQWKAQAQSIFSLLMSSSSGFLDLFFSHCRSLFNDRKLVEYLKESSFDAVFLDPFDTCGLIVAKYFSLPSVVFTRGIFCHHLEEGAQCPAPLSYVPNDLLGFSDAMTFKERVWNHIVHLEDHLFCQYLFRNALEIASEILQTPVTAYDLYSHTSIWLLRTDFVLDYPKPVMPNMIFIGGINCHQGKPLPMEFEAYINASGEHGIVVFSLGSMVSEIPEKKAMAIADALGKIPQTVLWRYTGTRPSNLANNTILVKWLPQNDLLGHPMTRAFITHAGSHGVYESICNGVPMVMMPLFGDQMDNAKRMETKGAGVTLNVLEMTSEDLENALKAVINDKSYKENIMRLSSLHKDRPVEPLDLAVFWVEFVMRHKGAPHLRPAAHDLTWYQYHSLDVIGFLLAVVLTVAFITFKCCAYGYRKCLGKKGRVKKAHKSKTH

On to `CC(=O)CC(c1ccc(O)cc1)c1c(O)c2ccccc2oc1=O` (stereo not drawn) [4′-OH-WAR, 4′-hydroxywarfarin], for which the half-inhibitory concentration (IC50) – broadly, the midpoint of a concentration-inhibition curve – was 39 µM in data set [1], more than 3000 µM in [3], 8.4 µM in [6] and 9.3 µM in data set [8]. Moreover, the “% R” value in data set [2] (patient F84) is 64%; in [2] (patient F85), 25%; in data set [2] (patient F87), 30%. Further, the results for the “% S (proportion in (S)-enantiomeric form)” value in data set [2] (patient F84), in data set [2] (patient F85) and in data set [2] (patient F87) were 56%, 75% and 70%, respectively. For the same compound, the “% conjugated (proportion glucuronidated)” value in data set [2] (patient F84) is on record as 47%. In addition, the results for the urinary concentration in data set [2] (patient F84), in data set [2] (patient F85) and in data set [2] (patient F87) were 140 nM, 94 nM and 20 nM, respectively. Besides, the Ki (commonly the dissociation constant of the complex between target and ligand, obtained from inhibition or displacement) in data set [4] was 17 µM; in data set [5], 17 µM; in [5] (mixed inhibition) it was 133 µM. Moreover, the Mechanism of inhibition result in [4] is given as “Competitive”; in data set [5], “Mixed”. Further, the “plasma protein binding affinity relative to warfarin” value in data set [7] is “affinity comparable to warfarin”.

For the compound `CC(=O)CC(c1ccccc1)c1c(O)c2cc(O)ccc2oc1=O` (stereo not drawn) [6-OH-WAR, 6-hydroxywarfarin], the IC50 in data set [1] was more than 500 µM; in data set [3], 1400 µM; in data set [6], 44.3 µM; in data set [8], 47 µM. For the same compound, the figures for the “% R” value in data set [2] (patient F84), in data set [2] (patient F85) and in data set [2] (patient F87) were 65%, 69% and 62%, respectively. Moreover, the “% S (proportion in (S)-enantiomeric form)” value in [2] (patient F84) was determined as 35%; in [2] (patient F85) it was 31%; in data set [2] (patient F87), 38%. Also, the “% conjugated (proportion glucuronidated)” value in data set [2] (patient F84) is on record as 35%; in data set [2] (patient F85), 15%; in data set [2] (patient F87), 12%. Moreover, the urinary concentration in [2] (patient F84) is 560 nM; in [2] (patient F85) it was 1124 nM; in [2] (patient F87), 204 nM. Also, the Ki in data set [4] was 167 µM; in [5], more than 170 µM. Moreover, the Mechanism of inhibition entry is recorded as “Competitive” in [4], “no inhibition was observed” in data set [5] (listed as 6-hydroxywarfarin) and “None” in data set [5] (listed as 6OHWAR). The “Ki, fold higher than the marker Km” value in data set [4] (human liver microsomes) is recorded as “approximately 32 fold”. Besides, in [9], the Km (usually the concentration of substrate that gives half-maximal velocity) was determined as 399 ± 130 µM. Besides, the Vmax in data set [9] worked out at 3.1 ± 0.4 nmol/mg protein/min. Further, the “plasma protein binding affinity relative to warfarin” value in data set [7] was “three- to four-fold lower affinity”.

Consider `CC(=O)C(O)C(c1ccccc1)c1c(O)c2ccccc2oc1=O` (stereo not drawn) [10-OH-WAR, 10-hydroxywarfarin], for which, in [10], the “mean unbound concentration in human plasma (estimated)” value is on record as 5.8 ng/mL. The “detection in urine specimens” value in data set [2] (any of the three specimens) was “not detected”. In addition, the Ki in [4] came out at 2.2 µM; in data set [5], 0.94 µM. The Mechanism of inhibition result in data set [4] and in [5] was “Competitive” throughout. The “Ki, fold lower than the microsomal Km for S-warfarin” value in data set [4] (human liver microsomes) amounted to 2.4 fold. Moreover, the “Ki, fold lower than the Km for S-warfarin” value in data set [5] (recombinant CYP2C9) is “approximately 2.5 fold”. For the same compound, the IC50 turned out to be 2 µM in data set [6] and 1.6 µM in data set [8].

For `CC(=O)C[C@@H](c1ccccc1)c1c(O)c2ccc(O)cc2oc1=O` [(S)-7-OH-WAR, (S) 7-hydroxywarfarin], the “share of (S)-WAR P450 metabolites measured” value in data set [2] is on record as 61-71%.

For the compound `CC(=O)C[C@@H](c1ccccc1)c1c(O)c2cccc(O)c2oc1=O` [(S)-8-OH-WAR, (S) 8-hydroxywarfarin], in data set [2], the “share of (S)-WAR P450 metabolites measured” value is given as 4-20%.

For the compound `CC(=O)C[C@@H](c1ccccc1)c1c(O)c2ccccc2oc1=O` [S-warfarin, (S) warfarin, reference compound], the “mean unbound concentration in human plasma (estimated)” value in data set [10] is listed as 2.7 ng/mL. Besides, the Km stood at 27 µM in data set [11] (4′-hydroxywarfarin formation), 26 µM in [11] (10-hydroxywarfarin formation), 2280 µM in [12] (4′-hydroxywarfarin formation) and 81 µM in data set [12] (10-hydroxywarfarin formation). In addition, the Vmax is on record as 64 pmol product/min/nmol P450 in data set [11] (4′-hydroxywarfarin formation), 76 pmol product/min/nmol P450 in [11] (setting [13]), 321 pmol product/min/nmol P450 in [12] (4′-hydroxywarfarin formation) and 22 pmol product/min/nmol P450 in [12] (setting [13]).
